In patent EP0447812B1, “Use of a dihydropyridine to improve the inner ear blood circulation” (FUJISAWA PHARMACEUTICAL CO., LTD., priority 1990, dated 1991):

Assays:
Male Wistar rats = test: Test 1: Rose Bengal/green light photo-illumination of the cochlear lateral wall, compound action potential (CAP) recorded by electrocochleography; format: in vivo; conditions: 0.3 mg/kg injected intravenously 10 minutes prior to photo-illumination; 6 animals; vehicle only 12.0 min.
Procedure: Male Wistar rats (body weights 240 - 260 g) were anesthetized with pentobarbital. After tracheotomy, the animals were artificially ventilated with a Harvard 683 respirator. A solution of Rose Bengal (RB) in saline (10 mg/ml) was infused into the femoral vein at a speed of 24 µmoles/kg per hour. After initiation of Rose Bengal infusion, the left middle ear was opened and, for electrocochleography, the round window lead electrode was fixed in position. Thus, after incision of the skin and muscle of the neck region, the tympanic cavity was drilled with a miniature drill and a silver ball electrode was placed on the round window membrane for use as an active electrode. An indifferent electrode was placed in the middle of the back of the head. Thirty minutes after initiation of Rose Bengal infusion, the lateral wall of the cochlea was irradiated with a green light (540 nm) conducted from a light source (L-3306-01A, Hamamatsu Photonics) through an optical fiber. Using a manipulator, the free end of the optical fiber was fixed about 5 mm away from the lateral wall of the cochlea. In this arrangement, the compound action potential (CAP) was recorded at 1-minute intervals. The electrocochleogram was recorded with Nihon Kohden Neuropack II by averaging 128 clicks of 8 kHz at a sound pressure level of 100 dB. […]

Rats = test: Test 2: Rose Bengal/green light photoillumination of the oval window, nystagmus test and swimming test for imbalance 24 hours later; format: in vivo; conditions: 0.03 mg/kg intravenously at the beginning of photoillumination, 12 animals, dosage 0: 100 %
Procedure: Rats were anesthetized with pentobarbital, and with the body temperature maintained at 37°C with a heating pad, an aqueous solution of Rose Bengal was continuously infused into the femoral vein. The […] was then opened and the tympanic membrane, incus and malleus were removed taking care not to impair the inner ear.
Using a Hamamatsu Photonic xenon lamp, the oval window was irradiated with a green light of 540 nm via an optical fiber. Using a manipulator, the end of the fiber was fixed about 3 mm from the lateral wall of the cochlea.
Photoillumination was started 20 minutes after the beginning of Rose Bengal infusion and a solution of the test compound in polyethylene glycol (400)-water (1:1, v/v) was intravenously administered at the beginning of photoillumination. After 40 minutes of irradiation, both the photoillumination and Rose Bengal infusion were terminated, the wound was sutured, and the animal was allowed to regain consciousness. At 24 hours after termination of photoillumination, a nystagmus test and a swimming test for imbalance were performed.

COC(=O)C1=C(C#N)NC(C)=C(C(=O)OC(C)C)C1c1cccc([N+](=O)[O-])c1 (stereo not drawn) [dihydropyridine compound A, Isopropyl 6-cyano-5-methoxycarbonyl-2-methyl-4-(3-nitrophenyl)-1,4-dihydropyridine-3-carboxylate]
Action potential disappearance time (Male Wistar rats): 14.5 min
Incidence (%) imbalance (Rats; swimming test 24 hours after termination of photoillumination): 58.3%
Incidence (%) Nystagmus (Rats; tested 24 hours after termination of photoillumination): 58.3%
